From patent publication US10829478B2, “5-[3-[piperazin-1-yl]-3-oxo-propyl]-imidazolidine-2,4-dione derivatives as ADAMTS 4 and 5 inhibitors for treating e.g. osteoarthritis” (Galapagos NV, priority 2016, dated 2020) come the findings set out here.

For one experiment, the target named is human ADAMTS-5 (Homo sapiens (Human), UniProt Q9UNA0). The experiment is described as follows: hADAMTS-5 TBIS-1 cleavage assay, Protocol 3. The class given is biochemical. The settings on record: 90 min at 37° C., read-out: hADAMTS-5 potency IC50.
Sequence of human ADAMTS-5 (Q9UNA0 262-930): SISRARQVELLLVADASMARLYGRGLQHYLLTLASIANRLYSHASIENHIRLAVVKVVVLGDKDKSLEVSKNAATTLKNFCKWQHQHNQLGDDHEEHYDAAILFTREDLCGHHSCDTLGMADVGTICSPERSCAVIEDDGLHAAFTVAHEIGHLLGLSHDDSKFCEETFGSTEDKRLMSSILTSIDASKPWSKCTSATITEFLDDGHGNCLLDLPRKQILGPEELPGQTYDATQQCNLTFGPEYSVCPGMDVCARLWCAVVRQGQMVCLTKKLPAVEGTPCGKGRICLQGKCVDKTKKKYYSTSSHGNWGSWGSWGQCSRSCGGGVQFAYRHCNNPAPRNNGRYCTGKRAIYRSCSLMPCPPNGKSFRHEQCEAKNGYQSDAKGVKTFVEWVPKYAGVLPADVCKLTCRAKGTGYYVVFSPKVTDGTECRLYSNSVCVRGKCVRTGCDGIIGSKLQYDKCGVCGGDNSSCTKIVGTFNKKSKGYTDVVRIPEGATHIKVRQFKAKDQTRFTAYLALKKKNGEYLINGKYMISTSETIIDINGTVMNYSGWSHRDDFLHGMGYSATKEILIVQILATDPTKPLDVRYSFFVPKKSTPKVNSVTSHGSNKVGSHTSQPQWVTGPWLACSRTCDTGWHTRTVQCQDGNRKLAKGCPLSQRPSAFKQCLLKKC
A further experiment concerns the target human ADAMTS6 (Homo sapiens (Human), UniProt Q9UKP5). The experiment is described as follows: hADAMTS-6 fluorescent based protease assay (520 MMP FRET substrate XII). The class given is biochemical. As to conditions: 37° C. for 2 h; read-out: hADAMTS-6 potency IC50. As for the experimental part:
The IC50 value for test compounds can be determined in a fluorescent based protease assay.
The substrate contains sequence Arg-Pro-Lys-Pro-Tyr-Ala-Nva-Trp-Met-Lys (SEQ ID NO: 7) with attached a fluorescent probe and a quencher. Without ADAMTS6, the emission of the probe is quenched. If the substrate is cleaved by ADAMTS6, the emission of the probe is not quenched anymore. Inhibition of ADAMTS6 activity, will result in a decrease of the signal.
To perform the assay, 4 μL of a dilution series of compound in water, starting from 20 μM highest concentration, ⅕ dilution, is added to the wells. 2 ng ADAMTS6 enzyme is diluted in 25 mM Tris pH8.0, 0.05% CHAPS, 2.5 mM CaCl2 in a total volume of 26 μL (final concentration 0.73 nM). The reaction is started by addition of 10 μL of 1 μM 520 MMP FRET Substrate XII (final concentration, diluted in same buffer as described above) and the mixture is incubated at 37° C. for 2 h. […] After this incubation, cleavage of the substrate is measured using the Envision (Perkin Elmer, exc485/em530).

The structures appear in SMILES notation.

A word on the IC50: it is the concentration that inhibits the measured activity by half.

Sequence of human ADAMTS6 (Q9UKP5 other isoform, or with tags, fused parts or gaps): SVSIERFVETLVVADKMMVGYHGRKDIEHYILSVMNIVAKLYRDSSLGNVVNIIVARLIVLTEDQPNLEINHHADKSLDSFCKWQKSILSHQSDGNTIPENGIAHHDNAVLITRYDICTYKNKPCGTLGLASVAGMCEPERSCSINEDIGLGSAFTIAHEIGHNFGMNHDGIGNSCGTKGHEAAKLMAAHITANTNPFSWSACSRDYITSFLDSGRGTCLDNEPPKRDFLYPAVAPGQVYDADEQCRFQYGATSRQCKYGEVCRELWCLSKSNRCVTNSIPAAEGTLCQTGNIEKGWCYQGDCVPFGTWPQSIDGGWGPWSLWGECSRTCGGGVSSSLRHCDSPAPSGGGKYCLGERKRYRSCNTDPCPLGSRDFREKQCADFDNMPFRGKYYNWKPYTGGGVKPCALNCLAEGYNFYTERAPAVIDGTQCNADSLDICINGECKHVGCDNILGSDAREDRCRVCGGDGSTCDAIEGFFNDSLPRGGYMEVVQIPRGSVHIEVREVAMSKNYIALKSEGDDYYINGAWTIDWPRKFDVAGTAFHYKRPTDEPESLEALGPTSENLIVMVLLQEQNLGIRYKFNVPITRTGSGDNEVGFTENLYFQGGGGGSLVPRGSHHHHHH
Method for human ADAMTS-5: The reaction is initiated by adding to the assay plate TBIS-1 (10 μL, 4.5 μM, Anaspec) in the same buffer.
Finally, the fluorescence is read on the Envision (Perkin Elmer) after an incubation of 90 min at 37° C. (Excitation 485 nm, emission 530).

As to `COc1ccc(C)c(N2CCN(C(=O)CCC3(C)NC(=O)NC3=O)C[C@@H]2C)c1` (stereo partly drawn) [Cpd 35, 5-[3-[(3S)-4-(5-methoxy-2-methyl-phenyl)-3-methyl-piperazin-1-yl]-3-oxo-propyl]-5-methyl-imidazolidine-2,4-dione], the half-inhibitory concentration (IC50) on human ADAMTS-5 and at human ADAMTS6 was more than 100 nM in each case. With `CCc1cc(N2CCN(C(=O)CCC3(CC(=O)O)NC(=O)NC3=O)C[C@@H]2C)ccc1Cl` (stereo partly shown) [Cpd 98, 2-[4-[3-[(3 S)-4-(4-chloro-3-ethyl-phenyl)-3-methyl-piperazin-1-yl]-3-oxo-propyl]-2,5-dioxo-imidazolidin-4-yl]acetic acid], at human ADAMTS6, the concentration for half-maximal inhibition (IC50) is 0.001 to 25 nM.

As to `COc1cc(N2CCN(C(=O)CC[C@@]3(C)NC(=O)NC3=O)CC2)c(OC)cc1Cl` [Cpd 97, (5R)-5-[3-[4-(4-chloro-2,5-dimethoxy-phenyl)piperazin-1-yl]-3-oxo-propyl]-5-methyl-imidazolidine-2,4-dione], the IC50 at human ADAMTS6 lay in the range of 25 to 50 nM.

`COc1ccc(OC(F)(F)F)c(N2CCN(C(=O)CC[C@@]3(C)NC(=O)NC3=O)C[C@@H]2C)c1` [Cpd 108, (5R)-5-[3-[(3S)-4-[5-methoxy-2-(trifluoromethoxy)phenyl]-3-methyl-piperazin-1-yl]-3-oxo-propyl]-5-methyl-imidazolidine-2,4-dione]: the IC50 on human ADAMTS6 is more than 100 nM.

For the molecule `COc1c(Cl)cccc1N1CCN(C(=O)CC[C@@]2(C)NC(=O)NC2=O)CC1` [Cpd 68, (5R)-5-[3-[4-(3-chloro-2-methoxy-phenyl)piperazin-1-yl]-3-oxo-propyl]-5-methyl-imidazolidine-2,4-dione], the IC50 at human ADAMTS6 was more than 100 nM. For `C[C@]1(CCC(=O)N2CCN(c3ccc(Cl)c(OC(F)(F)F)c3)CC2)NC(=O)NC1=O` [Cpd 88, (5R)-5-[3-[4-[4-chloro-3-(trifluoromethoxy)phenyl]piperazin-1-yl]-3-oxo-propyl]-5-methyl-imidazolidine-2,4-dione], the concentration for half-maximal inhibition (IC50) at human ADAMTS6 is 25 to 50 nM. Regarding `COc1cc(N2CCN(C(=O)[C@H](C)C[C@@]3(C4CC4)NC(=O)NC3=O)C[C@@H]2C)cc(F)c1F` (stereo in doubt) [Cpd 134, 5-cyclopropyl-5-[3-[(3S)-4-(3,4-difluoro-5-methoxy-phenyl)-3-methyl-piperazin-1-yl]-2-methyl-3-oxo-propyl]imidazolidine-2,4-dione], the concentration for half-maximal inhibition (IC50) was more than 100 nM at human ADAMTS-5 and 50 to 100 nM at human ADAMTS6. On to `CCc1cc(N2CCN(C(=O)CC[C@@]3(C)NC(=O)NC3=O)CC2)c(OC)cc1Cl` [Cpd 102, (5R)-5-[3-[4-(4-chloro-5-ethyl-2-methoxy-phenyl)piperazin-1-yl]-3-oxo-propyl]-5-methyl-imidazolidine-2,4-dione], for which the IC50 at human ADAMTS6 was more than 100 nM. As to `COc1ccc(C)c(N2CCN(C(=O)CCC3(C)NC(=O)NC3=O)CC2)c1` (stereo not shown) [Cpd 32, 5-[3-[4-(5-methoxy-2-methyl-phenyl)piperazin-1-yl]-3-oxo-propyl]-5-methyl-imidazolidine-2,4-dione], the concentration for half-maximal inhibition (IC50) on human ADAMTS-5 and at human ADAMTS6 was more than 100 nM throughout. `CCc1cc(N2CCN(C(=O)CC[C@@]3(C)NC(=O)NC3=O)C[C@@H]2C)c(OC)cc1Cl` [Cpd 103, (5R)-5-[3-[(3 S)-4-(4-chloro-5-ethyl-2-methoxy-phenyl)-3-methyl-piperazin-1-yl]-3-oxo-propyl]-5-methyl-imidazolidine-2,4-dione]: on human ADAMTS6, the IC50 is more than 100 nM. Consider `COc1cc(N2CCN(C(=O)[C@@H](C)C[C@@]3(C)NC(=O)NC3=O)C[C@@H]2C)cc(OC)c1Cl` (stereo in doubt) [Cpd 44, 5-[3-[(3S)-4-(4-chloro-3,5-dimethoxy-phenyl)-3-methyl-piperazin-1-yl]-2-methyl-3-oxo-propyl]-5-methyl-imidazolidine-2,4-dione], for which the IC50 is 50 to 100 nM on human ADAMTS-5 and 0.001 to 25 nM at human ADAMTS6. In the case of `COc1ccc(F)cc1N1CCN(C(=O)CC[C@@]2(C)NC(=O)NC2=O)CC1` [Cpd 83, (5R)-5-[3-[4-(5-fluoro-2-methoxy-phenyl)piperazin-1-yl]-3-oxo-propyl]-5-methyl-imidazolidine-2,4-dione], the half-maximal inhibitory concentration (IC50) on human ADAMTS6 was more than 100 nM. Consider `COc1cc(N2CCN(C(=O)CC[C@H]3NC(=O)NC3=O)C[C@H]2C)cc(F)c1F` [Cpd 127, (5R)-5-[3-[(3R)-4-(3,4-difluoro-5-methoxy-phenyl)-3-methyl-piperazin-1-yl]-3-oxo-propyl]imidazolidine-2,4-dione], for which the 50% inhibitory concentration (IC50) on human ADAMTS-5 and on human ADAMTS6 was more than 100 nM each time. `COc1cc(F)c(F)cc1N1CCN(C(=O)CC[C@@]2(C)NC(=O)NC2=O)C[C@@H]1C` [Cpd 113, (5R)-5-[3-[(3 S)-4-(4,5-difluoro-2-methoxy-phenyl)-3-methyl-piperazin-1-yl]-3-oxo-propyl]-5-methyl-imidazolidine-2,4-dione]: the IC50 on human ADAMTS-5 and at human ADAMTS6 was more than 100 nM throughout. Consider `COc1cccc(N2CCN(C(=O)CC[C@H]3NC(=O)NC3=O)CC2)c1C` [Cpd 137, (5R)-5-[3-[4-(3-methoxy-2-methyl-phenyl)piperazin-1-yl]-3-oxo-propyl]imidazolidine-2,4-dione], for which the IC50 on human ADAMTS-5 and on human ADAMTS6 was more than 100 nM throughout. With `COc1c(F)cccc1N1CCN(C(=O)CC[C@@]2(C)NC(=O)NC2=O)CC1` [Cpd 82, (5R)-5-[3-[4-(3-fluoro-2-methoxy-phenyl)piperazin-1-yl]-3-oxo-propyl]-5-methyl-imidazolidine-2,4-dione], at human ADAMTS6, the 50% inhibitory concentration (IC50) is more than 100 nM.

As to `COc1cc(N2CCN(C(=O)CC[C@@]3(C)NC(=O)NC3=O)CC2)c(C)cc1F` [Cpd 67, (5R)-5-[3-[4-(4-fluoro-5-methoxy-2-methyl-phenyl)piperazin-1-yl]-3-oxo-propyl]-5-methyl-imidazolidine-2,4-dione], the 50% inhibitory concentration (IC50) on human ADAMTS6 was in the range of 50 to 100 nM.

As to `CCc1cc(N2CCN(C(=O)CCC3(c4cccc(C)n4)NC(=O)NC3=O)C[C@@H]2C)ccc1Cl` (stereo partly shown) [Cpd 100, 5-[3-[(3 S)-4-(4-chloro-3-ethyl-phenyl)-3-methyl-piperazin-1-yl]-3-oxo-propyl]-5-(6-methyl-2-pyridyl)imidazolidine-2,4-dione], the IC50 at human ADAMTS6 was 0.001 to 25 nM.

In the case of `COc1cc(N2CCN(C(=O)CC[C@@]3(C)NC(=O)NC3=O)C[C@@H]2C)cc(OC)c1Cl` [Cpd 110, (5R)-5-[3-[(3 S)-4-(4-chloro-3,5-dimethoxy-phenyl)-3-methyl-piperazin-1-yl]-3-oxo-propyl]-5-methyl-imidazolidine-2,4-dione], the values for the IC50 at human ADAMTS-5 and on human ADAMTS6 were more than 100 nM and 0.001 to 25 nM, respectively. In the same order, the values of `CCOc1cc(N2CCN(C(=O)CC[C@@]3(C)NC(=O)NC3=O)C[C@@H]2C)ccc1Cl` [Cpd 111, (5R)-5-[3-[(3 S)-4-(4-chloro-3-ethoxy-phenyl)-3-methyl-piperazin-1-yl]-3-oxo-propyl]-5-methyl-imidazolidine-2,4-dione] are more than 100 nM and 0.001 to 25 nM. Turning to `COc1cc(Cl)c(Cl)cc1N1CCN(C(=O)CC[C@@]2(C)NC(=O)NC2=O)C[C@@H]1C` [Cpd 92, (5R)-5-[3-[(3 S)-4-(4,5-dichloro-2-methoxy-phenyl)-3-methyl-piperazin-1-yl]-3-oxo-propyl]-5-methyl-imidazolidine-2,4-dione], the IC50 at human ADAMTS6 was 0.001 to 25 nM. On to `CC(C)c1cc(N2CCN(C(=O)CC[C@@]3(C)NC(=O)NC3=O)CC2)ccc1Cl` [Cpd 87, (5R)-5-[3-[4-(4-chloro-3-isopropyl-phenyl)piperazin-1-yl]-3-oxo-propyl]-5-methyl-imidazolidine-2,4-dione], for which, on human ADAMTS6, the IC50 was 50 to 100 nM. The same measure, in the same setting: to `COc1cc(F)ccc1N1CCN(C(=O)CC[C@@]2(C)NC(=O)NC2=O)C[C@@H]1C` [Cpd 81, (5R)-5-[3-[(3 S)-4-(4-fluoro-2-methoxy-phenyl)-3-methyl-piperazin-1-yl]-3-oxo-propyl]-5-methyl-imidazolidine-2,4-dione] belongs more than 100 nM. On the same count and under the same terms, with `COc1c(F)cccc1N1CCN(C(=O)CC[C@@]2(C)NC(=O)NC2=O)C[C@@H]1C` [Cpd 84, (5R)-5-[3-[(3 S)-4-(3-fluoro-2-methoxy-phenyl)-3-methyl-piperazin-1-yl]-3-oxo-propyl]-5-methyl-imidazolidine-2,4-dione] the figure was more than 100 nM; with `Cc1cccc(C2(CCC(=O)N3CCN(c4ccc(Cl)c(OC(F)(F)F)c4)[C@@H](C)C3)NC(=O)NC2=O)n1` (stereo partly shown) [Cpd 101, 5-[3-[(3 S)-4-[4-chloro-3-(trifluoromethoxy)phenyl]-3-methyl-piperazin-1-yl]-3-oxo-propyl]-5-(6-methyl-2-pyridyl)imidazolidine-2,4-dione], 0.001 to 25 nM; with `COc1cc(N2CCN(C(=O)CC[C@@]3(C)NC(=O)NC3=O)C[C@@H]2C)c(OC)cc1Cl` [Cpd 104, (5R)-5-[3-[(3 S)-4-(4-chloro-2,5-dimethoxy-phenyl)-3-methyl-piperazin-1-yl]-3-oxo-propyl]-5-methyl-imidazolidine-2,4-dione], 0.001 to 25 nM. Same read-out and setting: to `COc1ccc(Cl)cc1N1CCN(C(=O)CC[C@@]2(C)NC(=O)NC2=O)CC1` [Cpd 77, (5R)-5-[3-[4-(5-chloro-2-methoxy-phenyl)piperazin-1-yl]-3-oxo-propyl]-5-methyl-imidazolidine-2,4-dione] belongs more than 100 nM; to `CCc1cc(CC)cc(N2CCN(C(=O)CC[C@@]3(C)NC(=O)NC3=O)CC2)c1` [Cpd 72, (5R)-5-[3-[4-(3,5-diethylphenyl)piperazin-1-yl]-3-oxo-propyl]-5-methyl-imidazolidine-2,4-dione], more than 100 nM.
